The values below come from patent US20120029418A1, “COMPOSITION AND METHOD FOR PHOTODYNAMIC DISINFECTION” (Advanced Photodynamic Technologies, Inc., priority 2010, published 2012).

Series [1] concerns polymicrobial biofilms containing MRPA and MRSA. In words: Example I: photodynamic disinfection of polymicrobial biofilm discs. The format is cell-based.
Procedure: (§1) An in vitro study was conducted on polymicrobial biofilms containing MRPA and MRSA using the following compositions: (i) compositions each comprising EDTA at one of the following concentrations: 0.5 mM (0.014612% w/v), 0.75 mM, 1.0 mM and 1.25 mM; (ii) composition comprising of methylene blue at a concentration of 0.05% w/v; (iii) compositions each comprising methylene blue at a concentration of 0.05% w/v and EDTA at one of the following concentrations: 0.5 mM, 0.75 mM, 1.0 mM and 1.25 mM. Clinical isolates of MRPA and MRSA were used in this study. Overnight tryptic soy broth (Remel, Lenexa, Kans.) cultures were centrifuged for 15 minutes at 5,000 RPM. The supernatants were removed and the cells washed and resuspended in 1× phosphate buffered saline (PBS) by alternate rounds of centrifugation for 2 minutes at 12.1×g and resuspension. Resulting bacterial suspensions were diluted with PBS to obtain approximately 1.5×10^5 cells/mL of each bacterium measured using a CrystalSpec nephlometer (BD Diagnostic Systems, Sparks, Md.). The suspensions were then combined. […]
(§2) Thereafter, all of the biofilm discs were each placed in a sterile 50 mL centrifuge tube with 1 mL of PBS, vortexed vigorously for one minute. […] The colonies were counted by a Protos automated counter (Synoptics, Frederick, Md.) to determine the total number of viable bacteria and expressed as colony forming units (CFU). […]
In series [2] the test system is planktonic MRPA and MRSA. In words: Example IV: planktonic MRPA and MRSA study. Type of series: cell-based. Particulars: for planktonic MRPA and MRSA reduction compared to the control: methylene blue 0.005% w/v, no EDTA.
Procedure: An in vitro study was conducted on planktonic MRPA and MRSA using the following compositions. (i) compositions each comprising EDTA at One of the following concentrations: 0.005 mM, 0.01 mM, 0.025 mM, 0:05 mM (0.0014612% w/v), 0.075 mM (0.0021918% w/v), 0.1 mM, 0.175 mM, 0.25 mM and 0.4 mM (0.0116896% w/v); (ii) composition comprising of methylene blue at a concentration of 0.005% w/v; and (iii) compositions each comprising of methylene blue at a concentration of 0.005% w/v with EDTA at one of the following concentrations: 0.005 mM, 0.01 mM, 0:025 mM, 0.05 mM, 0.075 mM, 0.1 mM 0.175 mM, 0.25 mM and 0.4 mM. The planktonic MRPA and MRSA samples were prepared in the same fashion as described in Example 1 in order to obtain approximately 1.5×10^8 cells/mL of MRPA and approximately 1.5×10^8 cells/mL of MRSA which were then combined.
Each of the compositions discussed above was prepared and then mixed with the combined bacterial solution of MRPA and MRSA and incubated for 30 seconds (“treated samples”). Thereafter, test tubes were prepared each containing 50 μl of one of the treated samples. Some of these test tubes were kept in dark incubation for 400 seconds while the remaining test tubes were exposed to 664 nm light using a non-laser light at a power density of 100 mW/cm^2 and a light energy dose of 10 J/cm^2.
Thereafter, a cotton-tipped swab (Puritan, Guilford, Me.) was dipped into the suspension contained within each test tube, placed in 1 mL of PBS With the stick broken off, and then vortexed for 3-5 seconds (“test samples”). […] The colonies were counted by a Protos automated counter (Synoptics, Frederick, Md.) to determine the number of viable bacteria and expressed as colony forming units (CFU). […] Counts for all experimental and control conditions were averaged and expressed as CFU/ml.
The planktonic MRPA and MRSA reduction rate was calculated as surviving CFU/ml in experimental conditions vs. the control (i.e., test samples that received no treatment) expressed as a log10 reduction from control and shown in FIGS. 6-7.
The subject of series [3] is polymicrobial biofilms containing MRPA and MRSA. In words: Example II: repeat polymicrobial biofilm study, protocol of Example I. The format is cell-based. Particulars: FIG. 2; methylene blue 0.05% w/v, no EDTA.
Procedure: as §1, §2
Series [4] has as its system Pseudomonas aeruginosa ATCC # 9027 in polymicrobial biofilms. In words: Example III: polymicrobial biofilm study, Pseudomonas aeruginosa count. The format is cell-based. Particulars: no EDTA, 669 nm, 72 J/cm^2.
Procedure: An in vitro study was conducted on polymicrobial biofilms containing MRSA and Pseudomonas aeruginosa. Stock cultures of MRSA ATCC # 33592 and Pseudomonas aeruginosa ATCC # 9027 were grown aerobically overnight on tryptic soy agar, harvested individually, and suspended in PBS solution with MRSA at a concentration of ˜2×10^8 CFU/ml and Pseudomonas aeruginosa at a concentration of ˜3×10^6 CFU/ml. Cell densities were measured as a function of absorbance at 420 nm using a Genesys 10 spectrophotometer (Thermo Scientific, Pittsburgh, Pa.). Pseudomonas aeruginosa inocula were then serial diluted in PBS to a concentration of ˜3×10^4 CFU/ml. The two suspended inocula (MRSA and Pseudomonas aeruginosa) were mixed at a ratio of 1:1 and then further diluted 1:40 into tryptic soy broth to achieve the biofilm inoculum of having a MRSA final concentration of ˜2.5×10^6 CFU/ml and Pseudomonas aeruginosa at a final concentration of ˜3.75×10^3 CFU/ml
The biofilm inoculum, prepared as described above, was then pipetted onto 8 mm diameter sterile silicone discs placed inside a 24-well culture plate with 600 μl of the biofilm inoculum per well. The plates were then allowed to shake for 24 hours at 125 rotations per minute using an Innova 200 platform gyrorotary shaker (New Brunswick Scientific Co, Edison N.J.) at 35° C. After 24 hours, all residual liquid from each well was removed and 600 μl of sterile tryptic soy broth was added to each well. […]
Immediately following illumination, the glass cover slip was removed carefully using sterile forceps and biofilm disc surfaces were swabbed using a calcium alginate swab following a reproducible “X” pattern. […] Colony counts were counted separately for each bacterial species (i.e., MRSA and Pseudomonas aeruginosa) providing differentiation of reduction for each of the bacterial species. Counts for all experimental and control conditions were averaged and expressed as CFU/ml. The bacteria reduction rate was calculated as surviving CFU/ml in experimental conditions vs. the control expressed as a log10 reduction from the control. […]
The conditions of series [5]: cited from earlier work.

Each structure is given as a SMILES string. Read-outs that look alike come from different tables or passages of the source.

With `O=C(O)CN(CCN(CC(=O)O)CC(=O)O)CC(=O)O` [EDTA, ethylenediaminetetraacetic acid], the “biofilm bacterial count reduction” value in series [1] (EDTA alone at 0.5 mM, 0.75 mM, 1.0 mM and 1.25 mM) was “did not result in any statistically significant biofilm bacterial count reduction”. Further, the bacterial count reduction entry in series [2] (EDTA alone at 0.005 mM to 0.4 mM, without light (dark incubation for 400 seconds)) was “did not result in any statistically significant bacterial count reduction”.
Regarding `CN(C)c1ccc2nc3ccc(=[N+](C)C)cc-3sc2c1` [methylene blue], the “bacterial reduction compared to the control” value came to 2.5 log10 in series [1] (FIG. 1, methylene blue 0.05% w/v, no EDTA, 664 nm, 45 J/cm^2) and 3.4 log10 in series [3]. Also, the “Pseudomonas aeruginosa reduction compared to the control” value in series [4] (FIG. 3, methylene blue 0.01% w/v) was 2.9 log10; in series [4] (FIG. 4, methylene blue 0.03% w/v) it was 2.9 log10; in series [4] (FIG. 5, methylene blue 0.05% w/v), 2.6 log10. Also, the “planktonic MRPA and MRSA reduction compared to the control” value was determined as 2.4 log10 in series [2] (FIG. 6, without any light (dark incubation 400 seconds)) and 3.5 log10 in series [2] (FIG. 7, with light treatment (664 nm, 10 J/cm^2)). For the same molecule, the entries for the “yield of the singlet oxygen generation” value in series [5] (pH 5) and in series [5] (pH 9) were 0.2 and 0.94, respectively.
